Series [1] concerns the target T1, arylhydrocarbon receptor (AhR) (Homo sapiens, UniProt P35869).
T1 sequence (P35869 11-848): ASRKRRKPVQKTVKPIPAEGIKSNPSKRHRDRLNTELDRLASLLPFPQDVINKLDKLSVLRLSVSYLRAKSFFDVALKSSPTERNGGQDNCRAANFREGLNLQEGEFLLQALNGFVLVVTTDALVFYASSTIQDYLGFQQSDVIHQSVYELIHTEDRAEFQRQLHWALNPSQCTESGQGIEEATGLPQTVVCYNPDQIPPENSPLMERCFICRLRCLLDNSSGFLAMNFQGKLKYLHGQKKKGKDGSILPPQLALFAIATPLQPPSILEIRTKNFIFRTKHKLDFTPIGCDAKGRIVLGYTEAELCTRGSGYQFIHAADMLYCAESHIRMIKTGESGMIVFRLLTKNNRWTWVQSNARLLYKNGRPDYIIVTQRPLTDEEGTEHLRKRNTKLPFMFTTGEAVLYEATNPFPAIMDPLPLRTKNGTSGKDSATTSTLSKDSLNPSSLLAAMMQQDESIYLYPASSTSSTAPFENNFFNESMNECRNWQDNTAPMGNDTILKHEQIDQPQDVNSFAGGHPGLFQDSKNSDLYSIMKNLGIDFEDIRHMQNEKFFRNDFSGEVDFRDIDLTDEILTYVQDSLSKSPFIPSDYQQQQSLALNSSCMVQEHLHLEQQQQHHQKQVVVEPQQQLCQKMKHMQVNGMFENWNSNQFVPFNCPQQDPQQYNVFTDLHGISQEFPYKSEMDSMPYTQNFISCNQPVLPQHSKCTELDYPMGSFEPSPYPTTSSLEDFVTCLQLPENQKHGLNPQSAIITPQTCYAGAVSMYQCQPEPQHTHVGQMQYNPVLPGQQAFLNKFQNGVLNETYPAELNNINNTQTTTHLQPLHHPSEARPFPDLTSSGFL
The conditions noted are these: cited from earlier work.

The subject of another series is Skin Type IV female. The experiment in a line: In vivo photoprotection proof of concept study: UVB-induced erythema after topical treatment. Also on record: species or system human. The conditions noted are these: one subject. The text has this:
The Malassezin 1% formulation used in this study contained the following ingredients: Water (aqua)—65.939%; Dimethyl isosorbide—20.000%; Olive Oil Glycereth-8 Esters—3.000%; Glycerin—2.991%; Coconut Alkanes—2.700%; Hydroxyethyl Acrylate/Sodium Acryloyldimethyl Taurate Copolymer—1.700%; Malassezin—1.000%; Pentylene Glycol—1.000%; Phenoxyethanol—0.640%; Coco-Caprylate/Caprate—0.300%; Caprylyl Glycol—0.200%; Chlorphenesin—0.160%; Sorbitan Isostearate—0.140%; Tocopherl—0.100%; Polysorbate 60—0.080%; and Disodium EDTA—0.050%.
A Skin Type IV […] was included in this Proof of Concept study.
A template of 6 squares was placed on the lower left back (1.5 cm×1.5 cm) of the test subject See FIG. 7.
Twenty-four hours after irradiation, the subject returned for MED assessment.
A second right lower square was treated twice daily from day 4 to day 7, and a third medial square for one application on day 7. The product vehicle was applied for 7 days twice daily on the left back. The subject returned to the research center for irradiation on day 7. Each test site was irradiated with 120 mJ of UVB exposure. The subject returned in 24 hours for assessment of phototoxicity/photoprotection.
The subject continued the experiment, receiving Malassezin 1% for a total of 14 days. […]

Series [2] relates to primary human melanocytes. The conditions noted are these: cited from earlier work.
The conditions of series [3]: cited from earlier work.
For another series, the system named is Candida albicans. Conditions: cited from earlier work.
For the next series, the system named is staphylococci. The conditions noted are these: cited from earlier work.
The subject of another series is yeast model. The conditions noted are these: cited from earlier work.

The values that follow come from US20190337927A1, “PHOTOPROTECTIVE COMPOSITIONS CONTAINING MALASSEZIA-DERIVED COMPOUNDS AND/OR CHEMICAL ANALOGS THEREOF” (priority 2018, published 2019).

Where two headings read alike, the source gives them in different places.

`O=C1Nc2ccccc2/C1=C1/Nc2ccccc2C1=O` [Indirubin]: the AhR activity result in series [1] is on record as “agonist”.

As for `O=Cc1c(Cc2c[nH]c3ccccc23)[nH]c2ccccc12` [Malassezin, 2-(1H-indol-3-ylmethyl)-1H-indole-3-carbaldehyde], in the series with Skin Type IV female, the “UV-protective properties, study conclusion” value was “UV-protective properties”. Also, in series [1], the AhR activity result was “agonist”. In series [2], the apoptosis induction entry is “induces apoptosis”.

Take `O=C(c1c[nH]c2ccccc12)c1nccc2c1[nH]c1ccccc12` [Pityriacitrin]: in series [3] (in vitro and in vivo tests in humans), the “UV protective effect overall” value is “very weak”. The “sun protection factor (SPF)” value was 1.4 in series [3] (pityriacitrin concentration 1.25% in cream), 1.5 in series [3] (pityriacitrin concentration 2.5% in cream) and 1.7 in series [3] (pityriacitrin concentration 5% in cream). Also, the UV-protective effect result with Candida albicans and with staphylococci was “UV-protective effect” throughout. For the same compound, the toxicity entry in the series with Candida albicans (ranges tested) and in the series on staphylococci (ranges tested) was “no toxicity” each time.

Consider `O=C1OC(c2c[nH]c3ccccc23)=C(c2c[nH]c3ccccc23)C1=O` [Pityrialactone], for which, in the series with yeast model, the UV protective properties result is “confirmed”.
